In patent EP3057951B1, “METHYLENE LINKED QUINOLINYL MODULATORS OF ROR-GAMMA-T” (Janssen Pharmaceutica NV, priority 2013, dated 2015) one finds Kd data, which are given here for 19 molecules.

The test has as its target T1, wild type human RORγt ligand binding domain (RORyt LBD) (Homo sapiens, UniProt P51449).
T1 construct: His-tag (N); TurboTEV protease cleavage site (ENLYFQG) (N); made in house; host or cells: E. coli (pHIS1, modified pET vector)
T1 sequence (P51449 258-518): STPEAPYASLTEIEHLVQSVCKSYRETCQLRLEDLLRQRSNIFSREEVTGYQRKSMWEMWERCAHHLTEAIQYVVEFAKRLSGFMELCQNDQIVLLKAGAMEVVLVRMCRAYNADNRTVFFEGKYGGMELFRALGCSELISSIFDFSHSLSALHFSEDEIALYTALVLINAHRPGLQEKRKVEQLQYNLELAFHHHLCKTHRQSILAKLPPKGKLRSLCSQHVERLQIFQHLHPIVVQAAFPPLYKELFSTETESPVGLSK
In words: RORγt ThermoFluor assay (thermal shift, binding affinity KD).

Where a name gives a salt, the structure may show the parent alone.

The term Kd denotes the free concentration of one partner at which half of the binding sites on the other are occupied at equilibrium, for simple one-to-one binding. Consider `CC(=O)N1CCC(C(O)(c2ccccc2)c2ccc3nc(C)c(Cc4ccc(C(F)(F)F)cc4)c(Cl)c3c2)CC1` (single isomer, unassigned) [Example 27b, 1-(4-((4-Chloro-2-methyl-3-(4-(trifluoromethyl)benzyl)quinolin-6-yl)(hydroxy)(phenyl)methyl)piperidin-1-yl)ethanone], for which the equilibrium dissociation constant (Kd) stood at 0.63 nM. Then `COc1nc2ccc(C(O)(c3cnnn3C)C3CN(C)C3)cc2c(Cl)c1Cc1ccc(C(F)(F)F)cc1` (single isomer, unassigned) [Example 90c, (4-Chloro-2-methoxy-3-(4-(trifluoromethyl)benzyl)quinolin-6-yl)(1-methyl-1H-1,2,3-triazol-5-yl)(1-methylazetidin-3-yl)methanol], with 3.4 nM. Then `CCc1nc2ccc(C(O)(c3cnc(C)n3C)C3CCOCC3)cc2c(Cl)c1Cc1ccc(C(F)(F)F)cc1` (single isomer, unassigned) [Example 34b, (4-Chloro-2-ethyl-3-(4-(trifluoromethyl)benzyl)quinolin-6-yl)(1,2-dimethyl-1H-imidazol-5-yl)(tetrahydro-2H-pyran-4-yl)methanol], with 0.03 nM; and `COc1nc2ccc(C(O)(c3cnc(C)n3C)c3cnc(C)n3C)cc2c(Cl)c1Cc1ccc(OC(F)(F)F)cc1` [Example 76, (4-chloro-2-methoxy-3-(4-(trifluoromethoxy)benzyl)quinolin-6-yl)bis(1,2-dimethyl-1H-imidazol-5-yl)methanol], with 0.03 nM.

As to `CCc1nc2ccc(C(O)(c3cnc(C)n3C)c3cnc(C)n3C)cc2c(Cl)c1Cc1ccc(C(F)(F)F)cc1` [Example 4, (4-Chloro-2-ethyl-3-(4-(trifluoromethyl)benzyl)quinolin-6-yl)bis(1,2-dimethyl-1H-imidazol-5-yl)methanole•TFA], the equilibrium dissociation constant (Kd) was 0.006 nM. Turning to `COCCN(C)c1nc2ccc(C(O)(c3ccc(C(F)(F)F)nc3)c3cncn3C)cc2c(Cl)c1Cc1ccc(-n2cccn2)cc1` (stereo not shown) [Example 128, {4-Chloro-2-[(2-methoxyethyl)(methyl)amino]-3-[4-(1H-pyrazol-1-yl)benzyl]quinolin-6-yl}(1-methyl-1H-imidazol-5-yl)[6-(trifluoromethyl)pyridin-3-yl]methanol], the dissociation constant (Kd) worked out at 97 nM. In the case of `CCc1nc2ccc(C(O)(c3cnnn3C)C3CN(C(C)=O)C3)cc2c(C#N)c1Cc1ccc(C(F)(F)F)cc1` (single isomer, unassigned) [Example 37, 6-((1-Acetylazetidin-3-yl)(hydroxy)(1-methyl-1H-1,2,3-triazol-5-yl)methyl)-2-ethyl-3-(4-(trifluoromethyl)benzyl)quinoline4-carbonitrile], the Kd came to 1.9 nM. For the molecule `Cc1nc2ccc(C(O)(c3cnnn3C)c3cnc(C)n3C)cc2c(Cl)c1Cc1ccc(C(F)(F)F)cc1` (stereo not shown) [Example 29a, (4-Chloro-2-methyl-3-(4-(trifluoromethyl)benzyl)quinolin-6-yl)(1,2-dimethyl-1H-imidazol-5-yl)(1-methyl-1H-1,2,3-triazol-5-yl)methanol], the Kd came out at 0.06 nM.

In the case of `COc1nc2ccc(C(O)(c3ccc(C)nc3C)c3cnc(C)n3C)cc2c(Cl)c1Cc1ccc(C(F)(F)F)nc1` (stereo not shown) [Example 42a, (4-Chloro-2-methoxy-3-((6-(trifluoromethyl)pyridin-3-yl)methyl)quinolin-6-yl)(1,2-dimethyl-1H-imidazol-5-yl)(2,6-dimethylpyridin-3-yl)methanol], the dissociation constant (Kd) was 0.38 nM. Then `COc1nc2ccc(C(O)(c3cnc(C)n3C)c3cnc(C)n3C)cc2c(C#N)c1Cc1ccccc1C(F)(F)F` [Example 10, 6-(bis(1,2-Dimethyl-1H-imidazol-5-yl)(hydroxy)methyl)-2-methoxy-3-(2-(trifluoromethyl)benzyl)quinoline-4-carbonitrile•TFA], with 0.17 nM.

With `Cc1ccc(C(O)(c2ccc3nc(C)c(Cc4ccc(C(F)(F)F)cc4)c(Cl)c3c2)c2cnnn2C)c(C)n1` (single isomer, unassigned) [Example 28b, (4-Chloro-2-methyl-3-(4-(trifluoromethyl)benzyl)quinolin-6-yl)(2,6-dimethylpyridin-3-yl)(1-methyl-1H-1,2,3-triazol-5-yl)methanol], the equilibrium dissociation constant (Kd) was 160 nM.

Regarding `COc1nc2ccc(C(O)(c3ccc(C)nc3C)c3cnc(C)n3C)cc2c(Cl)c1Cc1ccc(C(F)(F)F)nc1` (single isomer, unassigned) [Example 42c, (4-Chloro-2-methoxy-3-((6-(trifluoromethyl)pyridin-3-yl)methyl)quinolin-6-yl)(1,2-dimethyl-1H-imidazol-5-yl)(2,6-dimethylpyridin-3-yl)methanol], the Kd is 0.18 nM. To `COc1nc2ccc(C(O)(c3cnc(C)n3C)c3cnc(C)n3C)cc2c(Cl)c1Cc1ccc(F)cc1` [Example 67, (4-Chloro-3-(4-fluorobenzyl)-2-methoxyquinolin-6-yl)bis(1,2-dimethyl-1H-imidazol-5-yl)methanol] belongs 0.1 nM; to `CCc1nc2ccc(C(O)(c3cnc(C)n3C)C3CCOCC3)cc2c(Cl)c1Cc1ccc(C(F)(F)F)cc1` (single isomer, unassigned) [Example 34c, (4-Chloro-2-ethyl-3-(4-(trifluoromethyl)benzyl)quinolin-6-yl)(1,2-dimethyl-1H-imidazol-5-yl)(tetrahydro-2H-pyran-4-yl)methanol], 6.8 nM; to `CCc1nc2ccc(C(O)(c3cnnn3C)C3CCOCC3)cc2c(Cl)c1Cc1ccc(C(F)(F)F)cc1` (single isomer, unassigned) [Example 33b, (4-Chloro-2-ethyl-3-(4-(trifluoromethyl)benzyl)quinolin-6-yl)(1-methyl-1H-1,2,3-triazol-5-yl)(tetrahydro-2H-pyran-4-yl)methanol], 0.08 nM.

As to `COc1nc2ccc(C(O)(c3ccc(C)nc3C)c3cnc(C)n3C)cc2c(Cl)c1Cc1ccc(C(F)(F)F)cc1` (single isomer, unassigned) [Example 57b, (4-Chloro-2-methoxy-3-(4-(trifluoromethyl)benzyl)quinolin-6-yl)(1,2-dimethyl-1H-imidazol-5-yl)(2,6-dimethylpyridin-3-yl)methanol], the Kd was determined as 180 nM. To `COc1nc2ccc(C(O)(c3ccccn3)c3cncn3C)cc2c(Cl)c1Cc1ccc(S(C)(=O)=O)cc1` (single isomer, unassigned) [Example 58b, (4-Chloro-2-methoxy-3-(4-(methylsulfonyl)benzyl)quinolin-6-yl)(1-methyl-1H-imidazol-5-yl)(pyridin-2-yl)methanol] belongs 3600 nM. Then `Cc1nc2ccc(C(O)(c3cnnn3C)c3cnc(C)n3C)cc2c(Cl)c1Cc1ccc(C(F)(F)F)cc1` (single isomer, unassigned) [Example 29b, (4-Chloro-2-methyl-3-(4-(trifluoromethyl)benzyl)quinolin-6-yl)(1,2-dimethyl-1H-imidazol-5-yl)(1-methyl-1H-1,2,3-triazol-5-yl)methanol], with 0.04 nM; and `COc1nc2ccc(C(O)(c3cnc(C)n3C)c3cnc(C)n3C)cc2c(Cl)c1Cc1cccc(C(F)(F)F)c1` [Example 5, (4-Chloro-2-methoxy-3-(3-(trifluoromethyl)benzyl)quinolin-6-yl)bis(1,2-dimethyt-1H-imidazol-5-yt)methanol•TFA], with 0.041 nM.
